According to patent publication US20090047278A1, “Novel Combinational Use of Sulfonamide Compound” (Eisai R & D Management Co., Ltd., priority 2005, published 2009):

Key:
HCT116 cells = assay: DNA microarray analysis of gene expression changes, correlation and cluster analysis (Example 8); assay type: cell-based, human; conditions: HCT116, 24 hours, at twice the 50% growth inhibitory concentration; different from profiles of the other six compounds
Description: HCT116 cells were cultured in an RPMI-1640 medium supplemented with 10% fetal bovine serum, 100 units/ml penicillin and 100 μg/ml streptomycin. The following cultivation and compound treatment were carried out in an incubator at 5% CO2 and 37° C. HCT116 cells were seeded in 10 cm-diameter cell culture dishes at 2.0×10^6 cells/dish, cultured for 24 hours and subjected to the following compound treatment.
In this example, changes in the gene expression of HCT116 cells upon treatments with 12 compounds, i.e., E7820 (0.16 μM), E7070 (0.26 μM), LY186641 (59 μM), LY295501 (24 μM), LY-573636 (9.6 μM), CQS (4.0 μM), MST16 (100 μM), etoposide (3.6 μM), ethoxzolamide (410 μM), capsaicin (280 μM), trichostatin A (0.16 μM) and kenpaullone (7.1 μM) were examined.
The concentration of each compound used for the treatment was set to twice the 50% growth inhibitory concentration of each compound to the HCT116 cells (based on three days of antiproliferative activity using MTT). The cells were collected 24 hours after the treatment at the concentration indicated in parentheses following each compound name above. Similarly, cells cultured for 24 hours without the addition of any compound were also collected.
Total RNA extraction from the collected cells was performed using TRIZOL reagent (Invitrogen) according to the attached instruction.
Gene expression analysis using a DNA microarray was carried out in the same manner as “(2) Analysis of gene expression using DNA microarray” in Example 7.
This example was conducted for each sample in duplicate (for the convenience of the experiment, samples were given branch numbers like control-1, control-2, E7070-1, E7070-2 and so on for distinction). Then, GeneChip (Affymetrix) system (Human Focus array) was used for analyzing changes in the gene expression induced by each compound.
Twenty-six “.cel” files obtained in this example (13 samples (a control+12 compounds)×2) were subjected to RMA method (robust multi-array average method (Biostatistics (2003), 4, 249-264)) for normal distribution at probe level, and then the logarithm value of the signal intensity at gene level was calculated. Next, the logarithm value of the signal intensity of the untreated group (control-1) was subtracted from the logarithm value of the signal intensity of the compound-treated group for each gene to obtain the logarithm value of the signal ratio of the compound-treated group to control-1. Then, cosine correlation coefficients were calculated as correlation coefficients between the experiments (FIG. 9). Based on these correlation coefficients, hierarchical cluster analysis was performed according to UPGMA method (Unweighted Pair Group Method with Arithmetic mean method) (FIG. 10). Control-2 was also subjected to similar calculation (FIGS. 11 and 12). The softwares used were R 2.0.1 (http://www.r-project.org/) and affy package 1.5.8 (http://www.bioconductor.org).

HCT116-C9 = assay: Cross-resistance in E7070-resistant cell line, antiproliferative activity by MTT method; assay type: cell-based, human; conditions: Example 11, 72 hours
Description: An E7070-resistant cell line was used to assess the antiproliferative activities of E7820, LY186641, LY295501, LY-ASAP and CQS. HCT116-C9 was a substrain separated from human colon cancer-derived HCT116 (American Type Culture Collection, Manassas, Va., U.S.A.). This HCT116-C9 was cultured in the presence of E7070 while increasing the E7070 concentration by degrees, thereby obtaining E7070-resistant substrains HCT116-C9-C1 and HCT116-C9-C4 (Molecular Cancer Therapeutics, 2002, 1, 275-286).
Three cell lines, i.e., HCT116-C9, HCT116-C9-C1 and HCT116-C9-C4, were each seeded at 3000 cells/well onto a 96-well microplate (flat bottom) (50 μl/well). Twenty-four hours later, they were added with a 3-fold dilution series of each compound (50 μl/well). Seventy-two hours later, the antiproliferative activities were assessed by MTT method (Mossmann T., J. Immunol. Methods, 1983, 65, 55-63). The 50% growth inhibitory concentrations to the cancer cells were obtained by a least square method.
In exactly the same manner as in Example 10, an E7070-resistant cell line was used to assess the antiproliferative activities of LY573636 as well as those of E7070.

[1] = system: human renal cancer cell line (ACHN); assay: E7820 and cetuximab in subcutaneous transplant model of ACHN; assay type: in vivo; conditions: ACHN s.c. in nude mouse; E7820 oral 50 mg/kg twice a day, cetuximab i.p. 100 mg/kg twice a week, 2 weeks; Day 1 = first administration
Description: Human renal cancer cell line ACHN (obtained from Dainippon Pharmaceutical) was cultured in RPMI1640 (containing 10% FBS) in a 5% carbon dioxide incubator at 37° C. to about 80% confluence, and the cells were collected with trypsin-EDTA. Using a phosphate buffer, 1×10^8 cells/mL suspension was prepared, and 0.1 mL each of the resulting cell suspension was subcutaneously transplanted to a nude mouse at the side of its body.
Tumor Volume TV=Major axis of tumor(mm)×(Minor axis of tumor)^2 (mm^2)/2

[2] = system: human non-small-cell lung cancer cell line (A549); assay: E7820 and erlotinib in subcutaneous transplant model of A549; assay type: in vivo; conditions: A549 s.c. in nude mouse; oral; E7820 50 mg/kg twice a day, erlotinib 100 mg/kg once a day, 2 weeks; Day 1 = first administration
Description: (§1) Human non-small-cell lung cancer cell line A549 (purchased from Dainippon Pharmaceutical) was cultured in RPMI1640 (containing 10% FBS) in a 5% carbon dioxide incubator at 37° C. to about 80% confluence, and the cells were collected with trypsin-EDTA. Using a phosphate buffer containing 50% matrigel, 5×10^7 cells/mL suspension was prepared, and 0.1 mL each of the resulting cell suspension was subcutaneously transplanted to a nude mouse at the side of its body. Seventeen days after the transplantation, E7820 and erlotinib were orally administered alone or in combination for 50 mg/kg twice a day for 2 weeks and for 100 mg/kg once a day for 2 weeks, respectively. The major and minor axes of tumors were measured with Digimatic caliper (Mitsutoyo), and tumor volumes and relative tumor volumes were calculated according to the following formulae.
(§2) Tumor Volume TV=Major axis of tumor(mm)×(Minor axis of tumor)^2(mm^2)/2
(§3) Relative Tumor Volume RTV=Tumor volume on measurement day/Tumor volume on the first administration day

[3] = system: human non-small-cell lung cancer cell line (PC9); assay: E7820 and gefitinib in subcutaneous transplant model of PC9; assay type: in vivo; conditions: PC9 s.c. in nude mouse; oral; E7820 50 mg/kg twice a day, gefitinib 75 mg/kg once a day, 2 weeks; Day 1 = first administration
Description: Using a phosphate buffer, 5×10^7 cells/mL suspension was prepared, and 0.1 mL each of the resulting cell suspension was subcutaneously transplanted to a nude mouse at the side of its body. Eight days after the transplantation, E7820 and gefitinib were orally administered alone or in combination for 50 mg/kg twice a day for 2 weeks and for 75 mg/kg once a day for 2 weeks, respectively. The major and minor axes of tumors were measured with Digimatic caliper (Mitsutoyo), and tumor volumes and relative tumor volumes were calculated according to the following formulae.
as §2, §3

[4] = system: human non-small-cell lung cancer cell line (A549); assay: E7820 and gefitinib in subcutaneous transplant model of A549; assay type: in vivo; conditions: A549 s.c. in nude mouse; oral; E7820 50 mg/kg twice a day, gefitinib 75 mg/kg once a day, 3 weeks; Day 1 = first administration
Description: as §1, with “body. Ten” for “body. Seventeen”, “and gefitinib” for “and erlotinib”, “for 3” for “for 2”, “for 75” for “for 100”
Tumor Volume TV=Major axis of tumor(mm)×(minor axis of tumor)^2(mm^2)/2
as §3

[5] = system: human colon cancer cell line (WiDr); assay: E7820 and cetuximab in subcutaneous transplant model of WiDr; assay type: in vivo; conditions: WiDr s.c. in nude mouse; E7820 oral 50 mg/kg twice a day, cetuximab i.p. 100 mg/kg twice a week, 2 weeks; Day 1 = first administration
Description: Human colon cancer cell line WiDr (obtained from Dainippon Pharmaceutical) was cultured in RPMI1640 (containing 10% FBS) in a 5% carbon dioxide incubator at 37° C. to about 80% confluence, and the cells were collected with trypsin-EDTA. Using a phosphate buffer, 5×10^7 cells/mL suspension was prepared, and 0.1 mL each of the resulting cell suspension was subcutaneously transplanted to a nude mouse at the side of its body.

SMILES: Nc1ccc(S(=O)(=O)Nc2cnc3c(Cl)cccc3n2)cc1 [CQS, 2-sulfanylamide-5-chloroquinoxaline]
- similarity of changes in gene expression (cosine correlation, cluster analysis) among E7070, E7820, LY186641, LY295501, LY573636 and CQS (HCT116 cells): very similar genetic alterations

SMILES: NS(=O)(=O)c1ccc(S(=O)(=O)Nc2cccc3c(Cl)c[nH]c23)cc1 [E7070, N-(3-chloro-1H-indole-7-yl)-4-sulfamoylbenzenesulfonamide]
- IC50 (HCT116-C9): 127 nM
- similarity of changes in gene expression (cosine correlation, cluster analysis) among E7070, E7820, LY186641, LY295501, LY573636 and CQS (HCT116 cells): very similar genetic alterations

SMILES: Cc1ccc(NS(=O)(=O)c2cccc(C#N)c2)c2[nH]cc(C#N)c12 [E7820, N-(3-cyano-4-methyl-1H-indole-7-yl)-3-cyanobenzenesulfonamide]
- Relative tumor volume on Day 15 Average ± standard deviation [1]: 1.3 ± 0.2
- Relative tumor volume on Day 15 Average ± standard deviation [2]: 2.62 ± 0.07
- Relative tumor volume on Day 15 Average ± standard deviation [3]: 2.57 ± 0.41
- Relative tumor volume on Day 22 Average ± standard deviation [4]: 3.69 ± 0.68
- similarity of changes in gene expression (cosine correlation, cluster analysis) among E7070, E7820, LY186641, LY295501, LY573636 and CQS (HCT116 cells): very similar genetic alterations
- Relative tumor volume on Day 15 Average ± standard deviation [5]: 3.3 ± 0.6

SMILES: C#Cc1cccc(Nc2ncnc3cc(OCCOC)c(OCCOC)cc23)c1 [Erlotinib, 4-(3-ethynylphenylamino)-6,7-bis(2-methoxyethoxy)-quinazoline, reference compound]
- Relative tumor volume on Day 15 Average ± standard deviation [2]: 1.94 ± 0.19

SMILES: COc1cc2ncnc(Nc3ccc(F)c(Cl)c3)c2cc1OCCCN1CCOCC1 [Gefitinib, 4-(3-chloro-4-fluorophenylamino)-7-methoxy-6-(3-(4-morpholino)propoxy-quinazoline), reference compound]
- Relative tumor volume on Day 15 Average ± standard deviation [3]: 0.36 ± 0.12
- Relative tumor volume on Day 22 Average ± standard deviation [4]: 2.26 ± 0.59

SMILES: O=C(Nc1ccc(Cl)cc1)NS(=O)(=O)c1ccc2c(c1)CCC2 [LY186641, N-[[(4-chlorophenyl)amino]carbonyl]-2,3-dihydro-1H-indene-5-sulfonamide]
- similarity of changes in gene expression (cosine correlation, cluster analysis) among E7070, E7820, LY186641, LY295501, LY573636 and CQS (HCT116 cells): very similar genetic alterations

SMILES: O=C(Nc1ccc(Cl)c(Cl)c1)NS(=O)(=O)c1ccc2c(c1)CCO2 [LY295501, N-[[(3,4-dichlorophenyl)amino]carbonyl]-2,3-dihydrobenzofuran-5-sulfonamide]
- similarity of changes in gene expression (cosine correlation, cluster analysis) among E7070, E7820, LY186641, LY295501, LY573636 and CQS (HCT116 cells): very similar genetic alterations

SMILES: O=C(NS(=O)(=O)c1ccc(Br)s1)c1ccc(Cl)cc1Cl [LY573636, N-(2,4-dichlorobenzoyl)-5-bromothiophene-2-sulfonamide]
- similarity of changes in gene expression (cosine correlation, cluster analysis) among E7070, E7820, LY186641, LY295501, LY573636 and CQS (HCT116 cells): very similar genetic alterations
